Values quoted from earlier work, collected in US20100137247A1, “Anti-inflammatory compositions and methods” (Searete LLC, a limited liability corporation of the State …, priority 2008, published 2010).
Values belong to the compound of their own block, whether it stands above or below them.

Tests used:
[1] = 400 mg infused over one hour, single agent
[2] = tested on: proteasomal activity in cultured breast cancer cells; details: disulfiram bound to copper
lethal septic shock = details: mice

SMILES: CCN(CC)CCCC(C)Nc1ccnc2cc(Cl)ccc12.O=P(O)(O)O.O=P(O)(O)O (stereo not shown) [Chloroquine phosphate, 7-chloro-4-[[4-(diethylamino)-1-methylbutyl]amino]quinoline phosphate (1:2)]
tolerability of infusion [1]: without complication

inhibition of CpG-induced Src family kinase activation or its dependent cellular responses (Src family kinase): does not inhibit
SMILES: CCN(CC)CCCC(C)Nc1ccnc2cc(Cl)ccc12 (stereo not shown) [Chloroquine]

SMILES: CCN(CC)C(=S)SSC(=S)N(CC)CC [Disulfiram, 1-(diethylthiocarbamoyldisulfanyl)-N,N-diethyl-methanethioamide]
proteasomal activity [2]: inhibits proteasomal activity

SMILES: Cl.Cl.Nc1ccccc1Oc1ccc2c(N)nsc2c1 [Example M62812, 3-amino-6-(2-aminophenoxy)-1,2-benzisothiazole dihydrochloride]
prevention of lethal septic shock (lethal septic shock): prevents lethal septic shock
